Patent US20250375526A1, “IRAK DEGRADERS AND USES THEREOF” (Kymera Therapeutics, Inc., priority 2020, published 2025)

What was measured:
[1] = biological target: T1, IRAK4 (Homo sapiens, UniProt Q9NWZ3); assay: OCI-LY10 IRAK MSD assay DC50 (IRAK4 degradation); type: cell-based; conditions: OCI-Ly10 cells, incubated for 4 hr, concentration of compound required to degrade 50% of protein
T1 construct: endogenous in cells; host or cells: OCI-Ly10
T1 sequence (Q9NWZ3 1-460): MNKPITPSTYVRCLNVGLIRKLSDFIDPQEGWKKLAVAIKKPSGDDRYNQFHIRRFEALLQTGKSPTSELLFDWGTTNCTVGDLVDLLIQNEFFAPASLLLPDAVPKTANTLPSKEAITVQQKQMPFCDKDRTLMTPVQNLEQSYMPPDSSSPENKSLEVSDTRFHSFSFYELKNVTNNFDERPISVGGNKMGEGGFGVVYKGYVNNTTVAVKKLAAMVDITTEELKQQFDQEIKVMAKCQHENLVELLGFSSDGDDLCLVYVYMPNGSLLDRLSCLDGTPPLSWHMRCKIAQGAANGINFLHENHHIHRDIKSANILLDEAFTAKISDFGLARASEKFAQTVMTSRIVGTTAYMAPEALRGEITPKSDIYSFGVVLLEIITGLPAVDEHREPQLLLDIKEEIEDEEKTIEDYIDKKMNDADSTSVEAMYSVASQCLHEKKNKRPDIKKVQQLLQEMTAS
Description: A MSD assay is run to determine the concentration of compound required to degrade 50% of protein (DC50).
• Compounds were reconstituted to 10 mM in stock solutions. The stock solutions were diluted to 5 mM and 45 μL of each dilution was transferred to a 384 pp-plate. A 3 fold, 8-point serial dilution was performed by transferring 15 μL of compound into 30 μL DMSO using Janus. • 20 nL of each compound were added into each well of a 96-well plate (Corning3799). • OCI-Ly10 cells were seeded into the 96-well plate at 3.0*10e^5 cells/100 μL/well. • The cell plate was shaken at 720 rpm for 5 min and incubated for 4 hr. • 100 μL of cells were transferred into the 96-PCR plate and spun down at high speed for 5 mins. • The supernatant was discarded and 100 μL of RIPA lysis buffer with proteinase inhibitors was added per well. The plate was then sealed and shaken at 600 rpm and 4° C. for about 20 min. • The plate was then spun down at high speed (about 3200 g) for 30 min and then frozen in a −80° C. fridge. • A bare MSD plate (L15XA-3) was coated with 2 μg/mL of capture antibody (mouse Anti-IRAK4 antibody [2H9], ab119942) in PBS to 40 μL/well and incubated overnight at 4° C.
• The MSD coated plate was washed 3× (150 μL/well) with 1×TBST (CST #9997S). • The MSD plate was then blocked with 150 μL of blocking buffer [3% Blocker A (MSD, R93BA-4) in TBST]/well and shaken for 1 hr at RT and 600 rpm. • The MSD plate was washed 3× (150 μL/well) with 1×TBST. The sample RIPA lysates were then added to the MSD plate (50 μL/well) and shaken for 1 hr at RT and 600 rpm. • The MSD plate was washed 3× (150 μL/well) with 1×TBST and the primary detection antibody (Rabbit Anti-IRAK4 antibody [Y279], ab32511) was added to a final concentration of 1 μg/ml with 25 μL/well. The plate was then shaken for 1 hr at RT and 600 rpm. • The MSD plate was washed 3× (150 μL/well) with 1×TBST and the secondary detection antibody, SULFO-TAG anti-species antibody (Anti Rabbit Antibody (R32AB-5) MSD, R32AB-1) was added to a volume of 25 μL/well at a final concentration of 1 μg/ml. The plate was then shaken for 1 hr at RT and 600 rpm. • The MSD plate was then washed 3× (150 μL/well) with 1×TBST. • 1×MSD reading buffer was then added (150 μL/well) and the plate […].
(MSD, R92TC-2) • The MSD instrument was then read.
The remaining activity was calculated following the formula below:
• The DC50 was calculated by fitting the Curve using Xlfit (v5.3.1.3), equation 201: […]
The letter codes for IRAK4 DC50 indicate the concentration of compound required to degrade 50% of protein: A (<0.01 μM), B (0.01-0.1 μM), C (>0.1-0.2 μM), D (>0.2 μM).

[2] = system: OCI-LY10 cells; assay: CellTiter-Glo Luminescent Cell Viability Assay; type: cell-based; conditions: Homo sapiens, 96 h, incubated 4 days, read-out: OCI-LY10 CTG IC50
Description: Compound-mediated viability effect on OCI-LY10 was quantitatively determined using the CellTiter-Glo® Luminescent Cell Viability Assay kit from Promega (Catalog number G7570) following manufacturer's recommended procedures. Briefly, OCI-LY10 cells were seeded into 384 well plates (Grenier Bio-One, Catalog number 781080) with a density of 10,000 cells per well. Compounds were then added to the assay plate with final top concentration of 10 μM and 1:3 dilution series with total of 9 doses. The final DMSO concentration was normalized to 0.2%. The assay plates were incubated at 37° C. for 4 days under 5% CO2. Then the assay plate was equilibrated at room temperature for 10 minutes. To determine cell viability, 30 μL CellTiter Glo reagent was added to each well and the assay plate was centrifuged at 1000 rpm for 30 second, incubated at room temperature for 10 min, and analyzed by detecting the luminescence using a multimode plate reader (EnVision 2105, PerkinElmer). The data was then analyzed by software Prism 7.0 from GraphPad and the dose response curves were fit using a three-parameter logistic equation to calculate IC50.
The letter codes for OCI-LY10 CTG IC50 include: A (<1 μM), B (1-10 μM), C (>10 μM).

SMILES	DC50 [1]	IC50 [2]
CN(C[C@H]1CC[C@H](n2cc3cc(NC(=O)c4cccc(C(F)(F)F)n4)c(C(C)(C)O)cc3n2)CC1)C1CCN(c2ccn3c(N4CCC(=O)NC4=O)cnc3c2)CC1 [I-1]	< 0.01 µM	1 to 10 µM
CC(C)(O)c1cc2nn([C@H]3CC[C@H](CC4CCN(c5ccn6c(N7CCC(=O)NC7=O)cnc6c5)CC4)CC3)cc2cc1NC(=O)c1cccc(C(F)(F)F)n1 [I-2]	< 0.01 µM	1 to 10 µM
O=C1CCN(c2cnc3cc(C#CCOC4CCN(C[C@H]5CC[C@H](n6cc(NC(=O)c7cnn8ccc(N9C[C@H]%10C[C@@H]9CO%10)nc78)c(C(F)F)n6)CC5)CC4)ccn23)C(=O)N1 [I-3]	< 0.01 µM	1 to 10 µM
CN(C[C@H]1CC[C@H](n2cc3cc(NC(=O)c4cccc(C(F)(F)F)n4)c(C(C)(C)O)cc3n2)CC1)C1CCN(c2cccn3c(N4CCC(=O)NC4=O)cnc23)CC1 [I-4]	< 0.01 µM	1 to 10 µM
CN(C[C@H]1CC[C@H](n2cc3cc(NC(=O)c4cccc(C(F)(F)F)n4)c(C(C)(C)O)cc3n2)CC1)C1CCN(c2ccc3c(N4CCC(=O)NC4=O)cncc3c2)CC1 [I-5]		1 to 10 µM
CC(C)(O)c1cc2nn([C@H]3CC[C@H](CN4CCC(c5ccc6c(N7CCC(=O)NC7=O)cncc6c5)CC4)CC3)cc2cc1NC(=O)c1cccc(C(F)(F)F)n1 [I-6]		1 to 10 µM
CN(C[C@H]1CC[C@H](n2cc3cc(NC(=O)c4cccc(C(F)(F)F)n4)c(C(C)(C)O)cc3n2)CC1)C1CCN(c2cccc3c(N4CCC(=O)NC4=O)cncc23)CC1 [I-7]		> 10 µM
O=C1CCN(c2cncc3c(C#CCOC4CCN(C[C@H]5CC[C@H](n6cc(NC(=O)c7cnn8ccc(N9C[C@H]%10C[C@@H]9CO%10)nc78)c(C(F)F)n6)CC5)CC4)cccc23)C(=O)N1 [I-9]	< 0.01 µM	1 to 10 µM
O=C1CCN(c2cncc3cc(C#CCOC4CCN(C[C@H]5CC[C@H](n6cc(NC(=O)c7cnn8ccc(N9C[C@H]%10C[C@@H]9CO%10)nc78)c(C(F)F)n6)CC5)CC4)ccc23)C(=O)N1 [I-16]	> 0.2 µM	1 to 10 µM
COc1cc2nn([C@H]3CC[C@H](CN4CCC(c5ccc6c(N7CCC(=O)NC7=O)cncc6c5)CC4)CC3)cc2cc1NC(=O)c1cccc(C(F)(F)F)n1 [I-17]		< 1 µM
CC(C)(O)c1cc2nn([C@H]3CC[C@H](CN4CCC(c5cccn6c(N7CCC(=O)NC7=O)cnc56)CC4)CC3)cc2cc1NC(=O)c1cccc(C(F)(F)F)n1 [I-23]	< 0.01 µM	1 to 10 µM
O=C1CCN(c2cnc3c(C#CCOC4CCN(C[C@H]5CC[C@H](n6cc(NC(=O)c7cnn8ccc(N9C[C@H]%10C[C@@H]9CO%10)nc78)c(C(F)F)n6)CC5)CC4)cccn23)C(=O)N1 [I-24]	< 0.01 µM	1 to 10 µM
COc1cc2nn([C@H]3CC[C@H](CN(C)C4CCN(c5cccn6c(N7CCC(=O)NC7=O)cnc56)CC4)CC3)cc2cc1NC(=O)c1cccc(C(F)(F)F)n1 [I-25]	< 0.01 µM	< 1 µM
COc1cc2nn([C@H]3CC[C@H](CN4CCC(c5cccn6c(N7CCC(=O)NC7=O)cnc56)CC4)CC3)cc2cc1NC(=O)c1cccc(C(F)(F)F)n1 [I-26]	0.01 to 0.1 µM	< 1 µM
COc1cc2nn([C@H]3CC[C@H](CN(C)C4CCN(c5ccn6c(N7CCC(=O)NC7=O)cnc6c5)CC4)CC3)cc2cc1NC(=O)c1cccc(C(F)(F)F)n1 [I-31]	< 0.01 µM	< 1 µM
O=C1CCN(c2cnc3cc(C4CCN(C[C@H]5CC[C@H](n6cc7cc(NC(=O)c8cccc(C(F)(F)F)n8)ccc7n6)CC5)CC4)ccn23)C(=O)N1 [I-32]	> 0.2 µM	< 1 µM
CC(C)(O)c1cc2nn([C@H]3CC[C@H](CNCCOCCOCC#Cc4ccn5c(N6CCC(=O)NC6=O)cnc5c4)CC3)cc2cc1NC(=O)c1cccc(C(F)(F)F)n1 [I-34]	0.01 to 0.1 µM	> 10 µM
O=C1CCN(c2cnc3cc(C4CCN(C[C@H]5C[C@H](n6cc7cc(NC(=O)c8cccc(C(F)(F)F)n8)ccc7n6)C5)CC4)ccn23)C(=O)N1 [I-85]	> 0.2 µM	
COc1cc2nn([C@H]3CC[C@H](CN(C)C4CCN(c5ccn6c(N7CCC(=O)NC7=O)cnc6c5)CC4)CC3)cc2cc1NC(=O)c1cc(F)cc(C(F)(F)F)c1 [I-86]	0.01 to 0.1 µM	
COc1cc2nn([C@H]3CC[C@H](CN(C)C4CCN(c5ccn6c(N7CCC(=O)NC7=O)cnc6c5)CC4)CC3)cc2cc1NC(=O)c1cncc(Cl)c1 [I-87]	0.01 to 0.1 µM	
COc1cc2nn([C@H]3CC[C@H](CN(C)C4CCN(c5cccn6c(N7CCC(=O)NC7=O)cnc56)CC4)CC3)cc2cc1NC(=O)c1cncc(Cl)c1 [I-88]	> 0.2 µM	
